Source: patent US20180214395A1 (priority 2017, published 2018)
“And” between values parts separate entries of the source, which are not always exact repeats. Identical values can stand only once. Counter-ions that a name gives are not always drawn.

Assays:
opioid receptors = conditions: cited from earlier work
[1] = target: T1, norepinephrine transporter (NET) (Rattus norvegicus, UniProt Q63380); assay: Norepinephrine uptake assay; format: biochemical; conditions: for norepinephrine uptake, % inhibition: 1.0E−05 M
T1 construct: tissue Eurofins Cerep; host or cells: rat hypothalamus synaptosomes (own knowledge of the vendor's assay)

[2] = target: T2, PCP (antagonist radioligand) (Rattus norvegicus, UniProt P35439); assay: Binding assay PCP (antagonist radioligand); conditions: Study 2; Hill coefficient
T2 construct: PCP; rat cerebral; [^3H]TCP; tissue Eurofins Cerep; host or cells: rat cerebral cortex

[3] = target: T3, serotonin transporter (SERT or 5-HT) (Rattus norvegicus, UniProt P31652); assay: biochemical
[4] = target: T3, serotonin transporter (SERT or 5-HT)
[5] = target: NMDA (antagonist radioligand); assay: Binding assay NMDA (antagonist radioligand); conditions: Study 1; reference compound
μ (MOP) (h) = μ (MOP) (h) (Homo sapiens, UniProt P35372)
[6] = Novelty-suppressed feeding test (NSFT); format: in vivo; conditions: rat, 72 hr after single dose
[7] = Locomotor activity assessment (distance traveled, rearing); format: in vivo, rat
[8] = Female urine sniffing test (FUST); format: in vivo; conditions: rat; 24 hr after single dose; ketamine 10 mg/kg ip, d-methadone 20 mg/kg sc
Forced swim test = format: in vivo, rat
[9] = mouse hot plate test; cited from earlier work
[10] = 10 mg/kg, 24 hours prior to testing
[11] = rat, 24 h after dosing, one-way ANOVA
[12] = 10 mg/kg, single administration 24 hours prior, 60 counts per subject
[13] = Vehicle minus treatment, 10 mg/kg

T1 sequence (Q63380 1-617): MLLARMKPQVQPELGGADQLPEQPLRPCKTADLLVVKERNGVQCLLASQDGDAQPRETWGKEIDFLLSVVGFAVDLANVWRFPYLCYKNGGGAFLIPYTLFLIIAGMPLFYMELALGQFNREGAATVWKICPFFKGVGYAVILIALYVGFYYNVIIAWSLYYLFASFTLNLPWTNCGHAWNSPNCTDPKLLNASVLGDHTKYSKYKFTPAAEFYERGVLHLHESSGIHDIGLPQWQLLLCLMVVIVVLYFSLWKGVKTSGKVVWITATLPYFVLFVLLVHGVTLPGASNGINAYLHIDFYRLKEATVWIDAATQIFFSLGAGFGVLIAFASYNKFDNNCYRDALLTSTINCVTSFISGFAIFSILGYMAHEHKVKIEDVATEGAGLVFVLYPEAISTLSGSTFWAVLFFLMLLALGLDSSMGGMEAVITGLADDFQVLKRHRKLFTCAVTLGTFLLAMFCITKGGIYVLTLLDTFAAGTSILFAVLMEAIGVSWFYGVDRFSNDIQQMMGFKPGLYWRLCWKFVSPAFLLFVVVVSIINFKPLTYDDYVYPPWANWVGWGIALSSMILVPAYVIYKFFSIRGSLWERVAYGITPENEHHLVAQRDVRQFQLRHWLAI
T3 sequence (P31652 whole entry): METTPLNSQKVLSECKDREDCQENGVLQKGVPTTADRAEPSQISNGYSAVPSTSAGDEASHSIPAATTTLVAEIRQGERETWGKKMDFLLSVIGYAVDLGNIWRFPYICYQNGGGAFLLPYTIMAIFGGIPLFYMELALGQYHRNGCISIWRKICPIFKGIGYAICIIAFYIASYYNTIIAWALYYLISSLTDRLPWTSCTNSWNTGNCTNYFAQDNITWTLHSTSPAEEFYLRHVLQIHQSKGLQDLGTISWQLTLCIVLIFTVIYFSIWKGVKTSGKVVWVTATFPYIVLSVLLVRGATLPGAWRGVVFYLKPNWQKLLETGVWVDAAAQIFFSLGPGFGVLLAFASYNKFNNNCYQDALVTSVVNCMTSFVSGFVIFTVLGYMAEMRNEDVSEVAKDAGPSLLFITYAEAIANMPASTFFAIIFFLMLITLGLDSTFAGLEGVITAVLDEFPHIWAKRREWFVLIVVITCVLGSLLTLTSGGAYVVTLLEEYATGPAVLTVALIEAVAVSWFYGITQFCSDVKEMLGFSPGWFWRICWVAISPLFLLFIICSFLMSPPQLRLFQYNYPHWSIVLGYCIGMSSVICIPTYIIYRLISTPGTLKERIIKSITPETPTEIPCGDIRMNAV
Chain of μ (MOP) (h) (P35372 whole entry): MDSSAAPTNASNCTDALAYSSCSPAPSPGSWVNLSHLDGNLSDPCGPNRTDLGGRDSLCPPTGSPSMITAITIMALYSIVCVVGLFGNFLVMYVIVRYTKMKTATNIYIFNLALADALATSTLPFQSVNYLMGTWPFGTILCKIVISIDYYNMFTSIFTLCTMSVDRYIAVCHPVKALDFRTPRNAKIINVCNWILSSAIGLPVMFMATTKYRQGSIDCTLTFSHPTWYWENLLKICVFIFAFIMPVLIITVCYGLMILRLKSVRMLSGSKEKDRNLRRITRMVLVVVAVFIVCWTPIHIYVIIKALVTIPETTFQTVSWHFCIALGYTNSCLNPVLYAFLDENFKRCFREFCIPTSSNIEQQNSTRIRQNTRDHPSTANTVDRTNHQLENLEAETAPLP

CCC(=O)C(c1ccccc1)(c1ccccc1)C(C)CN(C)C (stereo not drawn) [d-isomethadone]
Potency, times less potent than l-isomethadone (opioid receptors): 50 times

[2H]C([2H])([2H])CC(=O)C(C[C@H](C)N(C([2H])([2H])[2H])C([2H])([2H])[2H])(c1ccccc1)c1ccccc1
IC50 [1]: 7200 nM
norepinephrine uptake, % inhibition [1]: 61.4%
nH [2]: 0.8
IC50 [3]: 1100 nM
inhibition [4]: 90.5%

CC[C@@H](c1cccc(O)c1)[C@@H](C)CN(C)C [tapentadol hydrochloride, reference compound]
IC50 [1]: 260 nM
norepinephrine uptake, % inhibition [1]: 94.1%
IC50 [3]: 850 nM
inhibition [4]: 89.1%

O=C(O)[C@@H]1C[C@H](CP(=O)(O)O)CCN1 [CGS 19755]
IC50 [5]: 1300 nM
Ki [5]: 1100 nM

CC[C@@H](c1cccc(O)c1)[C@@H](C)CN(C)C [TapentadolHydrochloride]
inhibition [4]: 91.1% and 87.2% and 89.1%

C[C@@H](NC(=O)[C@@H](N)Cc1ccc(O)cc1)C(=O)NCC(=O)N(C)[C@@H](Cc1ccccc1)C(=O)NCCO [DAMGO]
nH (μ (MOP) (h)): 0.9 and 0.8 and 0.7 and 1.0 and 0.6

C[C@]12N[C@H](Cc3ccccc31)c1ccccc12 [MK 801]
nH [2]: 0.9 and 1.1

CCC(=O)C(CC(C)N(C)C)(c1ccccc1)c1ccccc1 (racemic) [methadone]
NSFT: latency to feed in the home cage [6]: neither ketamine or methadone influenced

CNC1(c2ccccc2Cl)CCCCC1=O (centres unmarked) [ketamine, reference compound]
Distance traveled min 1-5, Mean [7, 10]: 586.333
Rearing min 1-5, Mean [7, 10]: 20.500
Total Distance Traveled, Mean [7, 10]: 2464.333 cm/60 min
Total Rearing, Mean ([7]; 10 mg/kg, 24 hours prior to testing, 60 minute test): 85.000
Locomotor activity: total distance traveled (60 min) [7, 11]: no significant effect
Locomotor activity: total rearing frequency (60 min) [7, 11]: no significant effect
FUST: time sniffing water [8]: no effect
FUST: time spent sniffing female urine vs vehicle [8]: increases
Climbing, Mean frequency (Forced swim test; [12]): 7.600
Immobility, Mean frequency (Forced swim test; [12]): 34.100
Swimming, Mean frequency (Forced swim test; [12]): 18.300
Climbing, Mean Diff. (Fisher's PLSD) (Forced swim test; [13]): −3.822
Immobility, Mean Diff. (Fisher's PLSD) (Forced swim test; [13]): 14.900
Swimming, Mean Diff. (Fisher's PLSD) (Forced swim test; [13]): −11.078
Forced swim test: frequency of immobility vs vehicle (Forced swim test; rat, 24 h after single dose, d-methadone 10, 20 and 40 mg/kg SC, ketamine 10 mg/kg IP): significantly decreased
Forced swim test: frequency of swimming vs vehicle (Forced swim test; rat, d-methadone 10, 20 and 40 mg/kg SC, ketamine 10 mg/kg IP): significantly increased
NSFT: latency to feed in the home cage [6]: neither ketamine or methadone influenced
NSFT: latency to eat in a novel open field ([6]; ketamine 10 mg/kg ip, d-methadone 20 mg/kg sc): significantly decreases

C[C@H](CN1CCOCC1)C(C(=O)N1CCCC1)(c1ccccc1)c1ccccc1 [d-moramide]
Potency, times more potent than l-moramide [9]: 700 times
